Data taken from PubChem BioAssay (NCI).
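Five compound concentrations were applied to cells in 96-well plates for 48 hours; endpoints were derived by simple linear interpolation of the resulting dose-response curve. GI50 = concentration required for 50% inhibition of growth. TGI: total growth inhibition.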

What was measured:
Test in all cases: NCI anticancer screen, dose series, 48 h
A498 renal = tested on: A498 renal
A549 NSCLC = tested on: A549 NSCLC
ACHN renal = tested on: ACHN renal
BT-549 breast = tested on: BT-549 breast
CAKI-1 renal = tested on: CAKI-1 renal
CCRF-CEM leukemia = tested on: CCRF-CEM leukemia
COLO 205 colon = tested on: COLO 205 colon
DU-145 prostate = tested on: DU-145 prostate
EKVX NSCLC = tested on: EKVX NSCLC
HCC-2998 colon = tested on: HCC-2998 colon
HCT-116 colon = tested on: HCT-116 colon
HCT-15 colon = tested on: HCT-15 colon
HL-60(TB) leukemia = tested on: HL-60(TB) leukemia
HOP-62 NSCLC = tested on: HOP-62 NSCLC
HOP-92 NSCLC = tested on: HOP-92 NSCLC
HS 578T breast = tested on: HS 578T breast
HT29 colon = tested on: HT29 colon
IGROV1 ovarian = tested on: IGROV1 ovarian
K-562 leukemia = tested on: K-562 leukemia
KM12 colon = tested on: KM12 colon
LOX IMVI melanoma = tested on: LOX IMVI melanoma
MALME-3M melanoma = tested on: MALME-3M melanoma
MCF7 breast = tested on: MCF7 breast
MDA-MB-231 breast = tested on: MDA-MB-231 breast
MDA-MB-435 = tested on: MDA-MB-435
MOLT-4 leukemia = tested on: MOLT-4 leukemia
NCI-H226 lung = tested on: NCI-H226 lung
NCI-H23 lung = tested on: NCI-H23 lung
NCI-H460 lung = tested on: NCI-H460 lung
NCI-H522 lung = tested on: NCI-H522 lung
NCI/ADR-RES ovarian = tested on: NCI/ADR-RES ovarian
OVCAR-3 ovarian = tested on: OVCAR-3 ovarian
OVCAR-4 ovarian = tested on: OVCAR-4 ovarian
OVCAR-5 ovarian = tested on: OVCAR-5 ovarian
OVCAR-8 ovarian = tested on: OVCAR-8 ovarian
PC-3 prostate = tested on: PC-3 prostate
RPMI-8226 leukemia = tested on: RPMI-8226 leukemia
RXF 393 renal = tested on: RXF 393 renal
SF-268 CNS = tested on: SF-268 CNS
SF-295 CNS = tested on: SF-295 CNS
SK-MEL-2 melanoma = tested on: SK-MEL-2 melanoma
SK-MEL-28 melanoma = tested on: SK-MEL-28 melanoma
SK-MEL-5 melanoma = tested on: SK-MEL-5 melanoma
SK-OV-3 ovarian = tested on: SK-OV-3 ovarian
SN12C renal = tested on: SN12C renal
SNB-19 CNS = tested on: SNB-19 CNS
SNB-75 CNS = tested on: SNB-75 CNS
SR leukemia = tested on: SR leukemia
SW-620 colon = tested on: SW-620 colon
T-47D breast = tested on: T-47D breast
TK-10 renal = tested on: TK-10 renal
U251 CNS = tested on: U251 CNS
UACC-257 melanoma = tested on: UACC-257 melanoma
UACC-62 melanoma = tested on: UACC-62 melanoma
UO-31 renal = tested on: UO-31 renal

COc1cc2c(/C=C3/C(=O)Nc4c3ccc3ccccc43)c(Cl)n(C)c2cc1C
GI50 (A498 renal): 666 nM
TGI (A498 renal): 3040 nM
GI50 (A549 NSCLC): < 19.3 nM
TGI (A549 NSCLC): 2010 nM
GI50 (ACHN renal): 400 nM
TGI (ACHN renal): 19500 nM
GI50 (BT-549 breast): < 10 nM
GI50 (CAKI-1 renal): < 22.4 nM
TGI (CAKI-1 renal): 12600 nM
GI50 (CCRF-CEM leukemia): 73.1 nM
TGI (CCRF-CEM leukemia): 1060 nM
GI50 (COLO 205 colon): 74.6 nM
TGI (COLO 205 colon): 180 nM
GI50 (DU-145 prostate): 235 nM
TGI (DU-145 prostate): 599 nM
GI50 (EKVX NSCLC): 275 nM
TGI (EKVX NSCLC): 6290 nM
GI50 (HCC-2998 colon): < 47 nM
GI50 (HCT-116 colon): < 44 nM
GI50 (HCT-15 colon): 899 nM
TGI (HCT-15 colon): 12600 nM
GI50 (HL-60(TB) leukemia): 59.7 nM
TGI (HL-60(TB) leukemia): > 100000 nM
GI50 (HOP-62 NSCLC): 680 nM
TGI (HOP-62 NSCLC): 16000 nM
GI50 (HOP-92 NSCLC): 705 nM
TGI (HOP-92 NSCLC): 22400 nM
GI50 (HS 578T breast): 358 nM
TGI (HS 578T breast): 1890 nM
GI50 (HT29 colon): < 19.6 nM
GI50 (IGROV1 ovarian): 42.4 nM
TGI (IGROV1 ovarian): 16100 nM
GI50 (K-562 leukemia): 194 nM
TGI (K-562 leukemia): 21500 nM
GI50 (KM12 colon): < 15.6 nM
TGI (KM12 colon): < 30.3 nM
GI50 (LOX IMVI melanoma): 137 nM
TGI (LOX IMVI melanoma): 13700 nM
GI50 (MALME-3M melanoma): 156 nM
TGI (MALME-3M melanoma): 19400 nM
GI50 (MCF7 breast): < 17.9 nM
GI50 (MDA-MB-231 breast): 53.9 nM
TGI (MDA-MB-231 breast): 882 nM
GI50 (MDA-MB-435): < 13.2 nM
TGI (MDA-MB-435): < 19.7 nM
GI50 (MOLT-4 leukemia): < 21.6 nM
TGI (MOLT-4 leukemia): 17300 nM
GI50 (NCI-H226 lung): 1270 nM
TGI (NCI-H226 lung): 24500 nM
TGI (NCI-H23 lung): 14700 nM
GI50 (NCI-H460 lung): < 18.9 nM
TGI (NCI-H460 lung): > 28000 nM
GI50 (NCI-H522 lung): < 10 nM
TGI (NCI-H522 lung): < 12.6 nM
GI50 (NCI/ADR-RES ovarian): 24.8 nM
TGI (NCI/ADR-RES ovarian): 62.9 nM
GI50 (OVCAR-3 ovarian): < 26.3 nM
GI50 (OVCAR-4 ovarian): 1520 nM
TGI (OVCAR-4 ovarian): 11600 nM
TGI (OVCAR-5 ovarian): 10500 nM
GI50 (OVCAR-8 ovarian): < 10 nM
GI50 (PC-3 prostate): 132 nM
TGI (PC-3 prostate): 3570 nM
GI50 (RPMI-8226 leukemia): < 20.4 nM
GI50 (RXF 393 renal): 20.3 nM
TGI (RXF 393 renal): 2980 nM
GI50 (SF-268 CNS): < 22.3 nM
TGI (SF-268 CNS): 18700 nM
GI50 (SF-295 CNS): < 15.4 nM
TGI (SF-295 CNS): < 29.1 nM
GI50 (SK-MEL-2 melanoma): < 14.7 nM
TGI (SK-MEL-2 melanoma): 10100 nM
TGI (SK-MEL-28 melanoma): > 47700 nM
GI50 (SK-MEL-5 melanoma): 636 nM
TGI (SK-MEL-5 melanoma): 1300 nM
GI50 (SK-OV-3 ovarian): 177 nM
TGI (SK-OV-3 ovarian): 13000 nM
GI50 (SN12C renal): 96.2 nM
TGI (SN12C renal): 3510 nM
GI50 (SNB-19 CNS): 104 nM
TGI (SNB-19 CNS): 8450 nM
TGI (SNB-75 CNS): 905 nM
GI50 (SR leukemia): 38.4 nM
TGI (SR leukemia): 22200 nM
GI50 (SW-620 colon): 1110 nM
TGI (SW-620 colon): 11800 nM
GI50 (T-47D breast): 16900 nM
TGI (T-47D breast): > 100000 nM
GI50 (TK-10 renal): 378 nM
TGI (TK-10 renal): 17300 nM
GI50 (U251 CNS): 1260 nM
TGI (U251 CNS): 12800 nM
GI50 (UACC-257 melanoma): < 10 nM
TGI (UACC-257 melanoma): 29300 nM
GI50 (UACC-62 melanoma): 104 nM
TGI (UACC-62 melanoma): 15400 nM
GI50 (UO-31 renal): < 18.3 nM
TGI (UO-31 renal): 6170 nM
